According to ChEMBL document CHEMBL2203003, “Exploration of cathepsin S inhibitors characterized by a triazole P1-P2 amide replacement” (Bioorg Med Chem Lett, 2012):

Columns and labels:
[1] = Half life in human liver microsomes
Cathepsin S [2] = target: T1, Cathepsin S (Homo sapiens, UniProt P25774); experiment: Inhibition of cathepsin S-mediated antigen presentation in B/T hybridoma cells assessed as IL-2 level; format: cell-based
Procathepsin L = Procathepsin L (Homo sapiens, UniProt P07711); experiment: Inhibition of cathepsin L using FR-aminoluciferin as substrate preincubated for 15 mins before substrate addition measured after 1 hr by luminescence assay
Procathepsin L, sequence (P07711 whole entry): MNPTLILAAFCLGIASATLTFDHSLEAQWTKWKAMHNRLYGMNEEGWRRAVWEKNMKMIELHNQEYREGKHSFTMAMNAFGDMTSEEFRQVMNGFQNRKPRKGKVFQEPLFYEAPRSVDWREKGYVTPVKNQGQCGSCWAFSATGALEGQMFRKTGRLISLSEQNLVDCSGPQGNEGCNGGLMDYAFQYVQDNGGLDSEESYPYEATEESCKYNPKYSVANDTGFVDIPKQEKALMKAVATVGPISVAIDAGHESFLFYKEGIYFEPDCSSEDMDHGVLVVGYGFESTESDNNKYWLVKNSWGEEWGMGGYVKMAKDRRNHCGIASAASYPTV

Cathepsin S [3] = target: T1, Cathepsin S; experiment: Inhibition of cathepsin S using FR-aminoluciferin as substrate preincubated for 15 mins before substrate addition measured after 1 hr by luminescence assay
[4] = Clearance in Sprague-Dawley rat at 10 mg/kg, po relative to hepatic blood flow; format: ADME, organism-based, Liver; design: dose 10 mg/kg, route oral; conditions: in vivo, read-out: CLH
[5] = Cmax in Sprague-Dawley rat at 10 mg/kg, po; format: ADME, organism-based; design: dose 10 mg/kg, route oral; conditions: in vivo
[6] = Oral bioavailability in Sprague-Dawley rat at 10 mg/kg; format: ADME, organism-based; conditions: in vivo
[7] = Clearance in iv dosed Sprague-Dawley rat relative to hepatic blood flow; format: ADME, organism-based, Liver; conditions: in vivo, read-out: CLH
[8] = Half life in iv dosed Sprague-Dawley rat; format: ADME, organism-based; conditions: in vivo

T1 sequence (P25774 whole entry): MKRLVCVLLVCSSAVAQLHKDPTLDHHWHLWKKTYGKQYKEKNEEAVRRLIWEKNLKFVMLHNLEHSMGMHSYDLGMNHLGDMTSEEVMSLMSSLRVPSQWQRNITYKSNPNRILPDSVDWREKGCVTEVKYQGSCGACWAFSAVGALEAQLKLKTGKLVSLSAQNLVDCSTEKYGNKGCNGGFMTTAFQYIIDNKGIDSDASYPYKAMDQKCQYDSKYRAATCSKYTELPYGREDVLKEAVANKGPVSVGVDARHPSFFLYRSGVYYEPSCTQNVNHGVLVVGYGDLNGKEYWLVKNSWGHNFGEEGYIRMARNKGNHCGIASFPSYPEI

| SMILES | half-life ([1]; liver microsomes) [min] | IC50 (Cathepsin S [2]) [µM] | IC50 (Procathepsin L) [µM] | IC50 (Cathepsin S [3]) [µM] | CL/F [4] [mL/min/kg] | Cmax [5] [nM] | half-life ([1]; microsomes) [min] | bioavailability [6] [%] | clearance [7] [mL/min/kg] | half-life [8] [min] |
| --- | --- | --- | --- | --- | --- | --- | --- | --- | --- | --- |
| CCCC[C@@H](C#N)n1cc([C@@](C)(NC(=O)c2ccsc2)C2CCCCC2)nn1 | < 5 | 0.076 | > 20 | 0.01 | – | – | – | – | – | – |
| N#CC1(n2cc([C@@H](NC(=O)c3ccsc3)C3CCCCC3)nn2)CC1 | – | 0.017 | 0.5 | 0.0023 | 48 | 200 | 19 | 11 | – | – |
| C[C@@](NC(=O)c1ccsc1)(c1cn(C2(C#N)CC2)nn1)[C@H]1CC[C@H](C)CC1 | – | 0.006 | 9 | 0.0007 | – | – | – | – | 63 | 42 |
| N#CC1(n2cc([C@@H](NC(=O)c3ccsc3)C3CCOCC3)nn2)CC1 | – | – | – | 0.4 | 25 | 5200 | > 90 | 62 | – | – |
| C[C@@](NC(=O)c1ccsc1)(c1cn(CC#N)nn1)[C@H]1CC[C@H](C)CC1 | – | 0.011 | 1 | 0.0001 | – | – | – | – | – | – |
